US9096576B2, “Compounds and methods for treatment of systemic lupus erythematosus” (The Feinstein Institute For Medical Research, priority 2010, dated 2015)
Entries after “also recorded” stand apart in the source; their conditions may differ.

Assays:
[1] = test system: autoantibodies present in serum from multiple lupus patients; experiment: competitive ELISA, lupus patient sera binding to DWEYS peptide; parameters: species or system human; conditions: sera pre-incubated, FIG. 4
Description: FIG. 4. Compound 12W inhibits autoantibodies present in human SLE sera. Inhibition of human SLE sera binding to antigens in vitro.
(§1) The studies above tested the ability of Compound 12W to neutralize monoclonal antibodies derived from mouse or human lupus sera. It was next tested whether Compound 12W would be similarly effective in inhibiting the polyclonal autoreactivity present in lupus patient sera (FIG. 4). Sera from lupus patients were pre-incubated with the Compound 12W and binding to DWEYS (SEQ ID NO:1) and dsDNA was then assayed in a competitive ELISA. […] The ability of Compound 12W to inhibit binding of lupus sera to mouse kidney glomeruli was also assayed.

[2] = test system: R4A or G11 antibodies; experiment: neurotoxicity of intracerebrally injected lupus autoantibodies, TUNEL staining; type: in vivo, mice
Description: FIG. 3. Compound 12W inhibits neurotoxicity of autoantibodies. The lupus autoantibodies caused significant neuronal apoptosis, as indicated by positive TUNEL staining (right panels).
Both R4A and G11 cause excitotoxic death of neurons in the mouse hippocampus (Zhang et al. 2009). Therefore, the ability of Compound 12W to negate the neurotoxicity of these autoantibodies was assayed. To test the neuroprotective potential of Compound 12W, mice were injected intracerebrally with R4A or G11 antibodies in the presence and absence of Compound 12W. As shown previously, the lupus autoantibodies caused significant neuronal apoptosis, as indicated by positive TUNEL staining (FIG. 3, upper and lower right panels). […] The neuroprotective dose of Compound 12W was 2 logs less than that previously used to achieve similar neuroprotection with the DWEYS (SEQ ID NO:1) peptide (Huerta et al. 2006).

[3] = test system: R4A antibody; experiment: R4A binding to mouse kidney glomeruli in situ; conditions: for inhibition of R4A binding to mouse kidney glomeruli: antibody pre-incubated, presence and absence of DNAse, FIG. 2A
From the text: FIG. 2A-2B. Compound 12W inhibits SLE autoantibody binding to glomeruli in situ. A) Data with R4A. B) Data with G11. From left to right: control, +DNAse, +Compound 12W, +DNAse+Compound 12W.
The kidney is a major target organ in SLE, with renal disease occurring in approximately 50% of patients. Glomerular deposition of circulating autoantibodies leads to a cascade of inflammatory events including renal infiltration by activated immune cells, activation of dendritic cells through Toll-like receptors and pro-inflammatory cytokine production (Bagavant and Fu 2009), which can culminate in end-stage renal disease. […] The R4A and G11 antibodies, as well as other pathogenic lupus antibodies, bind to both DNA and non-DNA antigens present in kidney glomeruli ex vivo. […] To test if Compound 12W could block the binding of the R4A antibody to its renal antigens in situ, the R4A antibody was incubated with mouse kidney glomeruli in the presence and absence of Compound 12W and its binding measured by detection with fluorescently-conjugated secondary antibodies.

[4] = test system: anti-BSA antibody; experiment: binding of an anti-BSA antibody to BSA (specificity control); conditions: data not shown
[5] = test system: G11 human autoantibody; experiment: competitive ELISA, G11 autoantibody binding to its antigens
From the text: (§2) FIG. 1A-1E. Compound 12W inhibits antigen recognition by systemic lupus erythematosus (SLE) autoantibodies. A) Structures of Compound 12W and WEY peptide (i.e., a tripeptide identical to the pentapeptide DWEYS (SEQ ID NO:1) less the carboxyl serine residue and the amino terminal aspartate of the pentapeptide). B) R4A mouse autoantibody binding to DWEYS (SEQ ID NO:1) peptide. C) R4A mouse autoantibody binding to DNA. D) G11 human autoantibody binding to DWEYS (SEQ ID NO:1) peptide. E) G11 human autoantibody binding to DNA. In B)-E), antibody binding in the presence of DWEYS peptide is shown in the right plot in each figure. Compound 12W inhibits binding as shown by the left plot in each figure.

[6] = test system: anti-dsDNA/NMDAR G11/R4A/human lupus antibody; experiment: glomerular deposition of anti-dsDNA/NMDAR antibody in vivo; parameters: species or system SCID mice
Description: In order to test if Compound 12W was also effective at protecting the kidney, a major target organ in lupus, from antibody deposition, the anti-dsDNA/NMDAR G11/R4A/human lupus antibody was administered to SCID mice in the absence and presence of Compound 12W and glomerular deposition was measured.

[7] = test system: R4A mouse autoantibody; experiment: competitive ELISA, R4A autoantibody binding to its antigens; conditions: in vitro; for inhibition of R4A binding to DWEYS peptide: antigen DWEYS peptide, FIG. 1B; for inhibition of R4A binding to dsDNA: antigen dsDNA, FIG. 1C
From the text: as §2

[8] = test system: human lupus sera; experiment: binding of lupus sera to mouse kidney glomeruli; conditions: data not shown
Description: as §1

[9] = test system: anti-dsDNA/NMDAR G11/R4A/human lupus antibody; conditions: mice; Gaynor et al. 1997, Huerta et al. 2006; cited from earlier work
[10] = test system: R4A antibody; conditions: literature; cited from earlier work

Row | Compound | inhibition of lupus patient sera binding to DWEYS peptide [1] | neuroprotective dose relative to that previously used with the DWEYS peptide ([2]; less than DWEYS peptide dose (Huerta et al. 2006)) [logs] | neuronal apoptosis caused by lupus autoantibodies (TUNEL staining) ([2]; mice, intracerebral co-administration with R4A or G11, FIG. 3) | inhibition of R4A binding to mouse kidney glomeruli [3] | dose dependence of inhibition of R4A binding to glomeruli ([3]; data not shown) | inhibition of binding of an anti-BSA antibody to BSA [4] | inhibition of G11 binding to DNA ([5]; antigen DNA, FIG. 1E) | inhibition of G11 binding to DWEYS peptide ([5]; antigen DWEYS peptide, FIG. 1D) | autoantibody binding to renal tissue in vivo [6] | inhibition of R4A binding to DWEYS peptide [7] | inhibition of R4A binding to dsDNA [7] | inhibition of binding of human lupus sera to mouse kidney glomeruli [8] | renal (and brain) deposition of anti-DNA/NMDAR antibodies in vivo, literature [9] | glomerular binding by R4A blocked (Gaynor et al 1997) [10]
1 | CC(C)(C)NCC1CC2CCCCC2CN1CC(O)C(Cc1ccccc1)NCC(CCN)NCC1Nc2ccccc2CC1O (centres unmarked) [Compound 12W, 2-((4-amino-1-(4-(3-((tert-butylamino)methyl)octahydroisoquinolin-2(1H)-yl)-3-hydroxy-1-phenylbutan-2-ylamino)butan-2-ylamino)methyl)-1,2,3,4-tetrahydroquinolin-3-ol] | able to inhibit binding | 2 | blocked the neurotoxic effects of the lupus antibodies | Dramatically less binding was observed to both DNA and non-DNA antigens | dependent on the dose | failed to inhibit binding | inhibited G11 binding at similar concentrations to its effect on R4A binding | inhibited G11 binding at similar concentrations to its effect on R4A binding | blocked autoantibody binding to renal tissue both ex vivo and in vivo | able to inhibit R4A binding to these same antigens at nM concentrations | able to inhibit R4A binding to these same antigens at nM concentrations | blocked binding of human lupus sera to kidney antigens | – | –
2 | DWEYS peptide: pentapeptide DWEYS (SEQ ID NO:1), antigen/mimetope recognised by anti-dsDNA/NMDAR lupus autoantibodies (listed as Homo sapiens) [reference compound] | – | – | – | could be mimicked by pre-incubation of the R4A antibody with the DWEYS (SEQ ID NO:1) peptide at mM concentrations | – | – | – | – | – | inhibitable by DWEYS (SEQ ID NO:1) peptide at mM concentrations | inhibitable by DWEYS (SEQ ID NO:1) peptide at mM concentrations | – | blocks renal and brain deposition of anti-DNA/NMDAR antibodies in mice; also recorded: able to block binding of the anti-dsDNA antibodies to kidneys in vivo | can be blocked
